In patent US20090274662A1, “Methods And Kits For The Treatment Of Inflammatory Bowel Disorder Conditions” (priority 2008, published 2009):

Settings: male, human, in vivo
Description: The patient is prescribed a pharmaceutical composition to be taken twice each week. Each unit dose of the pharmaceutical composition comprises 7200 milligrams of delayed-release mesalamine.

Nc1ccc(O)c(C(=O)O)c1 [delayed-release mesalamine, 5-amino-2-hydroxybenzoic acid]
amount of delayed-release mesalamine absorbed into the mucosa and colonic wall: equivalent to that of 2400 milligrams mesalamine taken once-daily
